Assay results from paper PMC5270475, “Structural Characterization and Ligand/Inhibitor Identification Provide Functional Insights into the Mycobacterium tuberculosis Cytochrome P450 CYP126A1” (The Journal of Biological Chemistry, 2016).

Target: T1, CYP126A1 (Mycobacterium tuberculosis, UniProt P9WPN9)
T1 construct: gene cyp126
Experiment: UV-visible absorbance titration (heme Soret shift)
Type: binding

T1 sequence (P9WPN9 whole entry): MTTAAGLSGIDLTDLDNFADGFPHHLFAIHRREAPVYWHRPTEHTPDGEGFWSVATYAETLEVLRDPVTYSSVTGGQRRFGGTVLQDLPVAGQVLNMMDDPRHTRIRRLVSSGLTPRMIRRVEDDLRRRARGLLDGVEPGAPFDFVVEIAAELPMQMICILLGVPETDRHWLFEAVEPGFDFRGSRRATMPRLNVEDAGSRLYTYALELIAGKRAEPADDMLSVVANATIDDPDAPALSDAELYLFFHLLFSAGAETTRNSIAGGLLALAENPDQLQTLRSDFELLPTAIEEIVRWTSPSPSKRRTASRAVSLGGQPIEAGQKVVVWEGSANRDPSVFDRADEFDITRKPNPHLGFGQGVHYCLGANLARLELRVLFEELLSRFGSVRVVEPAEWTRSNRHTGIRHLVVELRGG

Structure (SMILES) | Kd
CC(=O)N1CCN(c2ccc(OC[C@H]3CO[C@](Cn4ccnc4)(c4ccc(Cl)cc4Cl)O3)cc2)CC1 (racemic) [Ketoconazole] | 0.34 ± 0.07 µM
Clc1ccccc1C(c1ccccc1)(c1ccccc1)n1ccnc1 [Clotrimazole] | 3.9 ± 0.4 µM
Clc1ccc(COC(Cn2ccnc2)c2ccc(Cl)cc2Cl)cc1 (centres unmarked) [Econazole] | 4 ± 0.6 µM
c1c[nH]cn1 [Imidazole] | 2590 ± 60 µM
Clc1ccc(COC(Cn2ccnc2)c2ccc(Cl)cc2Cl)c(Cl)c1 (centres unmarked) [Miconazole] | 1.3 ± 0.2 µM
O=C(NCCCn1ccnc1)NC12CC3CC(CC(C3)C1)C2 [compound 7, Compound 7] | 4.13 ± 0.61 µM
Cn1c(-c2ccc(-c3nc4ccccc4[nH]3)cc2)nc2cc(N)ccc21 [compound 8, Compound 8] | 11 ± 0.6 µM
O=C(O)C1CSC(c2cc3ccccc3nc2Cl)N1 (centres unmarked) [compound 9, Compound 9] | 16.4 ± 0.7 µM
